Columns and labels:
[1] = system: MMP gelatinolytic activity; experiment: In situ zymography of cultured nerve explants; format: biochemical, rat; conditions: nerves cultured 2 days, 2% serum, in the presence of GM6001
Procedure: In situ zymography for nerve predegeneration experiments. Cryosections (10 μm) of unfixed normal and cultured nerves were mounted on slides and overlaid with reaction buffer (50 mM Tris-HCl, 150 mM NaCl, 5 mM CaCl2, 0.2 mM sodium azide, pH 7.6) containing 20 μg/ml of intramolecularly quenched, fluorescein-labeled gelatin substrate (MOLECULAR PROBES INC., Eugene, Oreg.) (Oh et al., 1999). In the control condition, the MMP inhibitor EDTA (30 mM) was included in the reaction buffer. After incubation for 24 h at 37° C., the sections were rinsed with PBS and fixed with 4% paraformaldehyde in phosphate buffer. The sections were rinsed with water and mounted using Citifluor. Fluorescein-gelatin peptides generated by gelatinolytic activity in the tissue sections were observed and photographed by epifluorescence microscopy.
The activity of MMPs is regulated by gene transcription, proenzyme activation and by the action of tissue inhibitors of metalloproteinases. The net gelatinolytic activity in nerve segments by in situ zymography was examined. Tissue sections were overlaid with quenched, fluorescein-gelatin, which is converted to fluorescent peptides by gelatinolytic activity within tissues. Constitutive gelatinolytic activity was detected in normal nerve mostly associated with Schwann cells aligned along the endoneurial basal lamina (as shown in FIGS. 17A and 17B). […]

Schwann cell cultures = experiment: Treatment of isolated Schwann cell cultures; format: cell-based
nerve segments = experiment: Dissociation culture (squash preparations) of cultured nerve segments; format: cell-based, rat; conditions: nerves cultured 2 days, 2% serum, with GM6001

Question: What does the source list for CNC(=O)[C@H](Cc1c[nH]c2ccccc12)NC(=O)[C@@H](CC(=O)NO)CC(C)C [GM6001]?
Answer: gelatinolytic activity in nerve explants [1]: nearly undetectable; toxicity to isolated Schwann cell cultures (Schwann cell cultures): very low toxicity; cell viability of nerve segments (cell outgrowth) (nerve segments): no loss of cell viability

— patent publication US7732200B2, “Materials and methods for nerve grafting, selection of nerve grafts, and in vitro nerve tissue culture” (University of Florida Research Foundation, Inc., priority 2001, dated 2010)
